According to patent US10539566B2, “Use of markers including filamin A in the diagnosis and treatment of prostate cancer” (Berg LLC, priority 2014, dated 2020):

How the values were obtained:
Type in all cases: cell-based, human
PC3 cells = assay: Causal protein networks from 2D LC-MS proteomics of prostate cancer cells treated with ubidecarenone; settings: upon treatment with ubidecarenone
Text: An interrogative systems biology based discovery platform (i.e., Interrogative Platform Technology or a.k.a. Interrogative Biology™) disclosed in WO2012119129 (incorporated herein by reference), and shown schematically in FIG. 1, provides new mechanistic insights into understanding mitochondrial role in behavior of prostate cancer cells. The discovery platform involves discovery across a hierarchy of systems including in vitro human cell based models and human serum samples from prostate cancer patients and downstream data integration and mathematical modeling employing an Artificial Intelligence (AI) based informatic module. For cellular models, androgen sensitive LnCAP cell line and metastatic, androgen refractory PC3 cell line were treated with ubidecarenone (coenzyme Q10) in order to engage the mitochondrial machinery. Proteomic signatures were captured using a 2D LC-MS orbitrap technology. Total protein signatures were input to an AI based informatics module to generate causal protein networks (FIG. 2).
The keratin 8/15 association was lost upon treatment with ubidecarenone, and a direct association of keratins 7 and 15 was established (FIG. 3).

[1] = test system: LnCAP cell line and PC3 cell line; assay: Wet lab assays measuring mitochondrial ROS, ATP and caspase 3 activation; settings: LnCAP and PC3 cells treated with ubidecarenone
[2] = test system: LnCAP, DU145, and PC-3 cells; assay: Quantitative RT-PCR of FLNA, FLNB and KRT19 expression after prostate-relevant stimuli; settings: 24 h, DU145, PC-3 cells
Procedure: Specifically, mRNA was prepared from LnCAP, DU145, and PC-3 cells exposed to hypoxia (1% oxygen; A), TNFα (10 ng/mL; B), or R1881 (1 nM; C) for 24 h. Expression of FLNA, FLNB, and KRT19 was assessed by quantitative RT-PCR, normalized to TBP, and compared to PSA. Values represent means+SEM, N=3. * p<0.05 compared to normoxia/control.

## COC1=C(OC)C(=O)C(C/C=C(\C)CC/C=C(\C)CC/C=C(\C)CC/C=C(\C)CC/C=C(\C)CC/C=C(\C)CC/C=C(\C)CC/C=C(\C)CC/C=C(\C)CCC=C(C)C)=C(C)C1=O [ubidecarenone]
PC3 cells
  direct association of keratins 7 and 15 in causal protein maps: established
  keratin 8/15 association in causal protein maps: lost
[1]
  intracellular levels of mitochondrial ROS, ATP and caspase 3 activation: confirmed changes in intracellular levels

## C[C@]1(O)CC[C@H]2[C@@H]3CCC4=CC(=O)CCC4=C3C=C[C@@]21C [R1881]
[2]; R1881 1 nM
  global regulation of FLNA, FLNB, and KRT19 expression (mRNA, normalized to TBP): remained unaltered

## TNFα
[2]; TNFα 10 ng/mL
  global regulation of FLNA, FLNB, and KRT19 expression (mRNA, normalized to TBP): remained unaltered
